Key:
[1] = system: EBV-infected B-cell lines; details: 50 μM AG490; previously demonstrated (Koganti et al. 2014); cited from earlier work
STAT3 phosphorylation = details: Janus kinase inhibitor; literature (Koganti 2014; Meydan 1996); cited from earlier work
[2] = system: LCL derived from a healthy subject; assay: DR-GFP reporter assay of HR-mediated DSB repair in LCL; type: cell-based, human; details: increasing concentrations of AG490 (25 μM, 50 μM) added 18 h after DR-GFP + ISce1 transfection, harvested after another 30 h
Procedure: (§1) FIGS. 2A to 2O show STAT3 restricts HR repair through Chk1 in oncovirus-transformed cells. FIGS. 2A to 2K show LCL derived from a healthy subject (FIGS. 2A-2E, 2K) and EBV-positive HH514-16 Burkitt lymphoma (BL) cells (FIGS. 2F-2J, 2K) were transfected with DR-GFP plasmid (FIGS. 2A-2D, 2F-2I) and empty vector pCAGGS (FIGS. 2A, 2F) or ISce1 plasmid (FIGS. 2B-2D, 2G-2I), treated with 25 μM (FIGS. 2C, 2H) or 50 μM (FIGS. 2D, 2I) AG490 (a selective STAT3 inhibitor) after 18 h, and harvested after another 30 h for analysis of GFP-positive cells by flow cytometry (FIGS. 2A-2D, 2F-2I) and immunoblotting for phospho(p)STAT3 and β-actin (FIG. 2K). LCL (FIG. 2E) and BL cells (FIG. 2J) were transfected in parallel with pEGFP to monitor transfection efficiency. […]
(§2) For assessment of cell-cycle distribution, cells were fixed, permeabilized, and stained with anti-EBNA2 antibody and 50 μg/ml propidium iodide supplemented with 1 μg/ml RNase A, as previously described (Hill, E. R. et al. J Virol 87:11438-11446 (2013)). […] Data were acquired using a FACS Calibur and analyzed using FlowJo software. […]

[3] = system: EBV-positive HH514-16 Burkitt lymphoma (BL) cells; assay: DR-GFP reporter assay of HR-mediated DSB repair in BL cells; type: cell-based, human; details: increasing concentrations of AG490 (25 μM, 50 μM) added 18 h after DR-GFP + ISce1 transfection, harvested after another 30 h; HH514-16 BL cells
Procedure: as §1, §2

[4] = system: LCL derived from healthy subjects (EBV-transformed cells); assay: Growth of LCL in the presence of Olaparib (live cell enumeration); type: cell-based, human; details: Olaparib used alone, added at time 0 and every 3-4 days thereafter; all LCL (3 healthy subjects)
Description: (§3) FIGS. 3A-3F show LCL derived from 3 healthy subjects (FIGS. 3A-3C) and 3 EBV^+ BL cell lines (HH514-16, Akata, and Raji; FIGS. 3D-3F) grown in the presence of Olaparib (added at time 0 and every 3-4 days thereafter) and enumerated for live cells on indicated days. FIGS. 3G-3N show LCL (FIGS. 3G-3J) and HH514-16 BL cells (FIGS. 3K-3N) transfected with DR-GFP plasmid (FIGS. 3G, 3H, 3K, 3L) and empty vector pCAGGS (FIGS. 3G, 3K) or ISce1 plasmid (FIGS. 3H, 3L) versus EJ2 plasmid (FIGS. 3I, 3J, 3M, 3N) and pCAGGS (FIGS. 3I, 3M) or ISce1 plasmid (FIGS. 3J, 3N) and harvested after 48 h for analysis of GFP-positive cells by flow cytometry. Numbers in plots indicate percent GFP-positive cells. Experiments were performed 3 times.
(§4) Newly-infected B cells and previously established EBV-LCL were grown in culture using conditions described (Koganti, S., et al. J Virol 88:516-524 (2014)). For experiments using AG490 and Olaparib, chemicals were added to cultures at time 0. For experiments using Olaparib, the drug was supplemented at the initial concentration every fourth day. For experiments using Bleomycin, the drug was added for an hour, following which cells were washed and placed back in culture.

[5] = system: EBV+ BL cell lines (HH514-16, Akata, and Raji); assay: Growth of EBV+ BL cell lines in the presence of Olaparib (live cell enumeration); type: cell-based, human; details: Olaparib used alone, effect more pronounced than on LCL
Description: as §3, §4

Compound: N#C/C(=C/c1ccc(O)c(O)c1)C(=O)NCc1ccccc1 [AG490]
- toxicity to EBV-infected B-cell lines [1]: minimally toxic
- inhibition of STAT3 phosphorylation (STAT3 phosphorylation): selectively inhibit STAT3 phosphorylation
- percentages of GFP+ cells (HR repair competent) [2]: increased
- percentages of GFP+ cells (HR repair competent) [3]: increased

Compound: O=C(c1cc(Cc2n[nH]c(=O)c3ccccc23)ccc1F)N1CCN(C(=O)C2CC2)CC1 [Olaparib]
- reduction in growth [4]: > 50%
- sensitivity to PARP inhibition (growth) [5]: exquisite sensitivity
